Source: the Deep4Chem optical property database

Test: photoluminescence quantum yield (fraction); solvent given as SMILES

SMILES: CNC(=O)[C@H](C)NC(=O)c1cccc2c1C#Cc1c(N)cccc1OCCCO2
- photoluminescence quantum yield (in CC#N): 0.25
- photoluminescence quantum yield (in ClCCl): 0.44

SMILES: COc1cccc(C2=C(c3ccc(C(C)(C)C)cc3)C(c3ccc(C(C)(C)C)cc3)=[N+]3C2=C(c2ccccc2)c2c(-c4cccc(OC)c4)c(-c4ccc(C(C)(C)C)cc4)c(-c4ccc(C(C)(C)C)cc4)n2[B-]3(F)F)c1
- photoluminescence quantum yield (in C1CCCCC1): 0.44
- photoluminescence quantum yield (in C1CCOC1): 0.45
- photoluminescence quantum yield (in CC#N): 0.38
- photoluminescence quantum yield (in Cc1ccccc1): 0.54
- photoluminescence quantum yield (in ClCCl): 0.58

SMILES: COc1cc(N(c2ccccc2)c2ccccc2)ccc1C=C(C#N)C#N
- photoluminescence quantum yield (in C1COCCO1): 0.012
- photoluminescence quantum yield (in CC#N): 0.005
- photoluminescence quantum yield (in CC(C)=O): 0.013
- photoluminescence quantum yield (in CCOC(C)=O): 0.017
- photoluminescence quantum yield (in CN(C)C=O): 0.009
- photoluminescence quantum yield (in CO): 0.006
- photoluminescence quantum yield (in Cc1ccccc1): 0.01
- photoluminescence quantum yield (in ClC(Cl)Cl): 0.023
- photoluminescence quantum yield (in ClCCl): 0.016

SMILES: Oc1ccccc1-c1nc2c3ccccc3c3ccccc3c2n1-c1ccccc1
- photoluminescence quantum yield (in Cc1ccccc1): 0.001

SMILES: CC1=CC(=[N+]2CCC2)C=C2C1=Nc1c(C)cc(N3CCC3)cc1[Si]2(C)C
- photoluminescence quantum yield (in C1COCCO1): 0.11
- photoluminescence quantum yield (in CCO): 0.11
- photoluminescence quantum yield (in O): 0.009
- photoluminescence quantum yield (in OCCO): 0.13

SMILES: Cc1ccc(S(=O)(=O)/N=c2\oc3cccc4c5c(-c6ccccc6)oc6cccc(c(c2-c2ccccc2)c34)c65)cc1
- photoluminescence quantum yield (in ClC(Cl)Cl): 0.64

SMILES: Cc1sc(Cl)cc1-c1nc(-c2ccc(Cl)cc2)[nH]c1-c1cc(Cl)sc1C
- photoluminescence quantum yield (in CC#N): 0.114

SMILES: c1ccc2cc(-c3c4ccccc4c(-c4ccc(-c5ccc(-n6c7ccccc7c7ccccc76)cc5)cc4)c4ccccc34)ccc2c1
- photoluminescence quantum yield (in ClCCl): 0.7

SMILES: CN(C)c1ccc(-c2cc3c(s2)c(C(=O)c2ccccc2)cc(=O)n3Cc2ccccc2)cc1
- photoluminescence quantum yield (in ClCCl): 0.01

SMILES: CCCCc1ccc2ccc3c(CCCC)ccc4ccc1c2c43
- photoluminescence quantum yield (in CCCCCC): 0.47
- photoluminescence quantum yield (in CO): 0.6
- photoluminescence quantum yield (in ClCCl): 0.36

SMILES: O=S(=O)(/N=c1\oc2cccc3c4c(-c5ccccc5)oc5cccc(c(c1-c1ccccc1)c23)c54)C(F)(F)F
- photoluminescence quantum yield (in CCCCCC): 0.7
- photoluminescence quantum yield (in CO): 0.78
- photoluminescence quantum yield (in CS(C)=O): 0.6
- photoluminescence quantum yield (in ClC(Cl)Cl): 0.92
- photoluminescence quantum yield (in ClCCl): 0.94
- photoluminescence quantum yield (in O): 0.05

SMILES: CCCCCCN1C(=O)c2cccc3c(-c4cc5ccccc5s4)ccc(c23)C1=O
- photoluminescence quantum yield (in ClC(Cl)Cl): 0.28

SMILES: c1ccc2c(c1)ccc1ccc3c(c12)-c1c(ccc2ccc4ccccc4c12)C3
- photoluminescence quantum yield (in ClCCl): 0.39

SMILES: COc1ccc2c3ccc(OC)cc3n(-c3ccc(-c4nnc(C)o4)cc3)c2c1
- photoluminescence quantum yield (in Cc1ccccc1): 0.06

SMILES: COc1cc(C2=c3c(c4ccc(C(C)(C)C)cc4c4c(OC)c(OC)c(OC)cc34)=[N+]3C2=Nc2c(-c4cc(OC)c(OC)c(OC)c4)c4c5cc(OC)c(OC)c(OC)c5c5cc(C(C)(C)C)ccc5c4n2[B-]3(F)F)cc(OC)c1OC
- photoluminescence quantum yield (in Cc1ccccc1): 0.001

SMILES: CC(C)[Si](C#Cc1c2nc3ccccc3nc2c(C#C[Si](C(C)C)(C(C)C)C(C)C)c2nc3c(ccc4cc5ccccc5cc43)nc12)(C(C)C)C(C)C
- photoluminescence quantum yield (in CCCCCC): 0.25

SMILES: C[Si](C)(C)c1ccc2ccc3c([Si](C)(C)C)ccc4ccc1c2c43
- photoluminescence quantum yield (in CCCCCC): 0.42
- photoluminescence quantum yield (in CO): 0.5
- photoluminescence quantum yield (in ClCCl): 0.5

SMILES: F[B-]1(F)OC(c2ccccc2)=Cc2c3ccccc3cc[n+]21
- photoluminescence quantum yield (in ClC(Cl)Cl): 0.046

SMILES: CCCCCCn1c2cc(C(=O)OCC)ccc2c2c1c1ccc(C(=O)OCC)cc1n2CCCCCC
- photoluminescence quantum yield (in CCCO): 0.6

SMILES: F[Si](c1ccccc1)(c1ccccc1)c1cccc2ccccc12
- photoluminescence quantum yield (in C1CCOC1): 0.14

SMILES: O=c1oc2ccc(Br)cc2cc1-c1cc2cc(Br)ccc2o1
- photoluminescence quantum yield (in CS(C)=O): 0.2

SMILES: C1=C(c2ccccc2)B(c2ccccc2)Nc2c1ccc1ccccc21
- photoluminescence quantum yield (in C1CCCCC1): 0.51

SMILES: CCCCCc1ccc(-c2ccc(C#Cc3cc(C#Cc4ccc(-c5ccc(CCCCC)cc5)cc4)c4ccc5c(C(=O)c6ccccc6)cc(C#Cc6ccc(-c7ccc(CCCCC)cc7)cc6)c6ccc3c4c65)cc2)cc1
- photoluminescence quantum yield (in ClCCl): 0.51
